Test results as given in ChEMBL document CHEMBL4808235, “Identification of 6-hydroxy-5-phenyl sulfonylpyrimidin-4(1H)-one APJ receptor agonists” (Bioorg Med Chem Lett, 2021).

Experiments:
[1] = target: T1, Apelin receptor (Homo sapiens, UniProt P35414); assay: Agonist activity at human APJ receptor assessed as effect on cAMP accumulation by cAMP-Glo assay; format: functional
T1 sequence (P35414 whole entry): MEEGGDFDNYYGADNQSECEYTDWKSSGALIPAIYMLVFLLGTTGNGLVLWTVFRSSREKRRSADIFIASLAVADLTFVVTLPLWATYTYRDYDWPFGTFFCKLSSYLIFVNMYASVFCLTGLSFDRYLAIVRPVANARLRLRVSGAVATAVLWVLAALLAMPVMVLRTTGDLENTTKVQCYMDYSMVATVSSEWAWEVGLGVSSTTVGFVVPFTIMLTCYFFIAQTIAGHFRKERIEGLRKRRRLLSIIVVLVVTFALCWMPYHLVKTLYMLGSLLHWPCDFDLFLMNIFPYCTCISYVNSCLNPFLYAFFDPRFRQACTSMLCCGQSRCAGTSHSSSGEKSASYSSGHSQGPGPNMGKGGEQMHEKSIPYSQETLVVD

[2] = target: T2, Apelin receptor (Rattus norvegicus, UniProt Q9JHG3); assay: Agonist activity at rat APJ receptor assessed as effect on cAMP accumulation by cAMP-Glo assay; format: functional
T2 sequence (Q9JHG3 whole entry): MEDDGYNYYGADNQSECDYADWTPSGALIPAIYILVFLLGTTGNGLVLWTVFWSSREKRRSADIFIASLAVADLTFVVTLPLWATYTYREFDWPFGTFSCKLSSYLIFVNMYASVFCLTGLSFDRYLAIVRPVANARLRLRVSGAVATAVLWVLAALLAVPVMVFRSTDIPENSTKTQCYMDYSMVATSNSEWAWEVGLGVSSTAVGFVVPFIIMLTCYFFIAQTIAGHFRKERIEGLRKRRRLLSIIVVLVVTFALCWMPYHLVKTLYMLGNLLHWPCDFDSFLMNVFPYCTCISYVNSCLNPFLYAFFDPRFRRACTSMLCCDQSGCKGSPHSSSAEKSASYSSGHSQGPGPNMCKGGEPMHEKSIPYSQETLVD

[3] = target: T3, Apelin receptor (Mus musculus, UniProt Q9WV08); assay: Agonist activity at mouse APJ receptor assessed as effect on cAMP accumulation by cAMP-Glo assay
T3 sequence (Q9WV08 whole entry): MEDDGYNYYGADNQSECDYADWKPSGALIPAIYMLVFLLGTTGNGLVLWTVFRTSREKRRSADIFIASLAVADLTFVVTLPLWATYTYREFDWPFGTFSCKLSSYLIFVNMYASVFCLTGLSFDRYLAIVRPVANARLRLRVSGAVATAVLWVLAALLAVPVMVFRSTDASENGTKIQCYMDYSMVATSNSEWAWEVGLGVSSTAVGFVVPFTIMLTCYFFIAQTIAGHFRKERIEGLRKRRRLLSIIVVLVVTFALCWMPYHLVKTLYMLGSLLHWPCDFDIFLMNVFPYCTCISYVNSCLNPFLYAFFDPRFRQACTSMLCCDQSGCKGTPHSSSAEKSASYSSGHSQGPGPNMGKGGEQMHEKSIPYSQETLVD

[4] = Metabolic stability in human liver microsomes assessed as parent compound remaining incubated for 10 mins in presence of NADPH; format: ADME, Microsome; settings: read-out: Stabilty
[5] = Metabolic stability in mouse liver microsomes assessed as parent compound remaining incubated for 10 mins in presence of NADPH; format: ADME, Microsome; settings: read-out: Stabilty
[6] = Metabolic stability in rat liver microsomes assessed as parent compound remaining incubated for 10 mins in presence of NADPH; format: ADME, Microsome; settings: read-out: Stabilty
[7] = Permeability of the compound at pH 5.5 by PAMPA; format: ADME; settings: read-out: permeability
[8] = Permeability of the compound at pH 7.4 by PAMPA; format: ADME; settings: read-out: permeability
[9] = Cmax in rat at 1 mg/kg, po; format: ADME, organism-based; design: route oral, dose 1 mg/kg; settings: in vivo
[10] = Half life in rat at 1 mg/kg, po; format: ADME, organism-based; settings: in vivo
[11] = Cmax in cynomolgus monkey at 3 mg/kg, po; format: ADME, organism-based, Macaca fascicularis; design: route oral, dose 3 mg/kg; settings: in vivo
[12] = tested on: Rattus norvegicus; assay: Hemodynamic activity in Sprague-Dawley rat model of acute pressure-volume loop model assessed as increase in cardiac output at 10 mg/kg/min administered as iv infusion for 15 mins relative to control; format: functional; settings: 0.25 h
[13] = tested on: Rattus norvegicus; assay: Hemodynamic activity in Sprague-Dawley rat model of acute pressure-volume loop model assessed as increase in dP/dT at 10 mg/kg/min administered as iv infusion for 15 mins relative to control; format: functional; settings: 0.25 h
[14] = Plasma concentration in Sprague-Dawley rat model of acute pressure-volume loop model at 10 mg/kg/min administered as iv infusion for 5 mins; format: ADME, organism-based
[15] = Plasma concentration in Sprague-Dawley rat model of acute pressure-volume loop model at 10 mg/kg/min administered as iv infusion for 15 mins; format: ADME, organism-based
[16] = Plasma concentration in Sprague-Dawley rat model of acute pressure-volume loop model assessed as free fraction at 10 mg/kg/min administered as iv infusion for 5 mins; format: ADME, organism-based; settings: in vivo
[17] = Plasma concentration in Sprague-Dawley rat model of acute pressure-volume loop model assessed as free fraction at 10 mg/kg/min administered as iv infusion for 15 mins; format: ADME, organism-based; settings: in vivo, 0.25 h
[18] = Toxicity activity in Sprague-Dawley rat model of acute pressure-volume loop model assessed as change in blood pressure at 10 mg/kg/min administered as iv infusion for 15 mins relative to control; format: organism-based; settings: in vivo, 0.25 h
[19] = Toxicity activity in Sprague-Dawley rat model of acute pressure-volume loop model assessed as change in heart rate at 10 mg/kg/min administered as iv infusion for 15 mins relative to control; format: organism-based; settings: in vivo, 0.25 h
[20] = in vivo; settings: rat, po, 1 mg/kg
[21] = in vivo; settings: cynomolgus monkey, po, 3 mg/kg
Description: AUC (0 to infinity) in cynomolgus monkey at 3 mg/kg, po

[22] = AUC (0 to 24 hrs) in rat at 1 mg/kg, po; format: ADME, organism-based; design: time < 24 hr, route oral, dose 1 mg/kg; settings: in vivo

Row | Compound | EC50 [1] | EC50 [2] | EC50 [3] | remaining at 10 min [4] | remaining at 10 min [5] | remaining at 10 min [6] | Papp [7] | Papp [8] | also measured
1 | CCCCc1[nH]c(=O)c(S(=O)(=O)c2ccc(-c3cccnc3OC)cc2)c(O)c1-c1c(OC)cccc1OC | 0.03 nM | 0.7 nM | 0.2 nM | 72% | 24% | – | – | – | –
2 | CCCCc1[nH]c(=O)c(S(=O)(=O)c2ccc(-n3ccccc3=O)cc2)c(O)c1-c1c(OC)cccc1OC | 0.5 nM | 3 nM | 2 nM | 100% | 75% | 100% | 177 nm/s | 5 nm/s | –
3 | CCCCc1nc(=O)c(S(=O)(=O)c2ccc(-n3cc(Cl)ccc3=O)cc2)c(O)n1-c1c(OC)cccc1OC | 0.05 nM | 0.01 nM | 0.02 nM | 94% | 100% | 74% | 83 nm/s | – | –
4 | CCCCc1nc(=O)c(S(=O)(=O)c2ccc(-c3cccnc3OC)cc2)c(O)n1-c1c(OC)cccc1OC | 0.01 nM | 0.02 nM | 0.03 nM | 97% | 98% | 27% | 456 nm/s | – | –
5 | CCCCc1nc(=O)c(S(=O)(=O)c2ccc(-c3ccc(F)nc3)cc2)c(O)n1-c1c(OC)cccc1OC | 0.002 nM | 0.004 nM | 0.02 nM | 100% | 69% | 2% | 516 nm/s | 24 nm/s | –
6 | COc1cccc(OC)c1-n1c(C2CCCC2)nc(=O)c(S(=O)(=O)c2ccc(C3CC3)cc2)c1O | 0.3 nM | 1.5 nM | 0.4 nM | – | – | – | – | – | –
7 | CCCCc1[nH]c(=O)c(S(=O)(=O)c2ccc(-c3ccc(F)cc3)cc2)c(O)c1-c1c(OC)cccc1OC | 17 nM | 72 nM | 34 nM | – | – | – | – | – | –
8 | CCCCc1nc(=O)c(S(=O)(=O)c2ccc(-n3ccccc3=O)cc2)c(O)n1-c1c(OC)cccc1OC | 0.02 nM | – | 0.03 nM | 87% | 63% | 83% | 12 nm/s | 1 nm/s | –
9 | CCCCc1nc(=O)c(S(=O)(=O)c2ccc(-c3ccnc(NC(=O)C4CC4)c3)cc2)c(O)n1-c1c(OC)cccc1OC | 0.03 nM | 0.04 nM | 0.04 nM | 84% | 72% | 72% | 183 nm/s | 11 nm/s | Cmax [9]: 0.4 µM; AUC(0-t) at 24 h [22]: 0.6 µM·h; half-life [10]: 1.3 h
10 | CCCCc1nc(=O)c(S(=O)(=O)c2ccc(-c3cccnc3)cc2)c(O)n1-c1c(OC)cccc1OC | 0.04 nM | 0.05 nM | 0.05 nM | 88% | 57% | 3% | 202 nm/s | 6 nm/s | –
11 | CCCCc1[nH]c(=O)c(S(=O)(=O)c2ccc(-c3ccc(F)nc3)cc2)c(O)c1-c1c(OC)cccc1OC | 0.7 nM | 12 nM | 5 nM | – | – | – | – | – | –
12 | CCCCc1nc(=O)c(S(=O)(=O)c2ccc(-c3ccc(F)cc3)cc2)c(O)n1-c1c(OC)cccc1OC | 0.08 nM | 0.02 nM | 0.1 nM | 100% | 47% | 5% | 418 nm/s | 132 nm/s | –

Further lines, with some results ahead:

Row | EC50 [1] | EC50 [2] | EC50 [3] | remaining at 10 min [4] | remaining at 10 min [5] | remaining at 10 min [6] | Papp [7] | Papp [8] | Compound | also measured
13 | – | 0.03 nM | – | 89% | 31% | 1% | 246 nm/s | 35 nm/s | COc1cccc(OC)c1-n1c(CCC(C)C)nc(=O)c(S(=O)(=O)c2ccc(-c3ccc(F)nc3)cc2)c1O | –
14 | 5 nM | 10 nM | 5 nM | – | – | – | – | – | COc1cccc(OC)c1-n1c(-c2cncc(C)c2)nc(=O)c(S(=O)(=O)c2ccc(C3CC3)cc2)c1O | –
15 | 0.04 nM | 0.4 nM | 0.1 nM | 80% | 39% | 57% | 355 nm/s | 76 nm/s | CCCCc1[nH]c(=O)c(S(=O)(=O)c2ccc(-c3ccncc3C)cc2)c(O)c1-c1c(OC)cccc1OC | –
16 | 0.02 nM | 0.06 nM | 0.03 nM | 95% | 93% | 59% | 615 nm/s | 22 nm/s | CCCCc1nc(=O)c(S(=O)(=O)c2ccc(C3CC3)cc2)c(O)n1-c1c(OC)cccc1OC | Cmax [9]: 6.2 µM; half-life [10]: 5.6 h; Cmax [11]: 1.5 µM; Activity [12]: 11%; Activity [13]: 14%; concentration at 5 min [14]: 2.6 µM; concentration at 0.25 h [15]: 5.8 µM; Cp(f) [16]: 0.0052 µM; Cp(f) [17]: 0.012 µM; Activity [18]: Non-Toxic; Activity [19]: Non-Toxic; AUC(0-inf) [20]: 3.9 µM·h; AUC(0-inf) [21]: 4.7 µM·h
17 | 0.2 nM | 0.3 nM | 0.3 nM | 94% | 80% | 74% | 243 nm/s | 7 nm/s | CCCCc1nc(=O)c(S(=O)(=O)c2ccc(C)cc2)c(O)n1-c1c(OC)cccc1OC | –
18 | 0.03 nM | 0.2 nM | 0.1 nM | 97% | 64% | 72% | 285 nm/s | 22 nm/s | CCCCc1[nH]c(=O)c(S(=O)(=O)c2ccc(-n3cc(Cl)ccc3=O)cc2)c(O)c1-c1c(OC)cccc1OC | –
19 | 0.5 nM | 0.9 nM | 1 nM | 89% | 79% | 93% | 141 nm/s | 1.5 nm/s | CCCCc1nc(=O)c(S(=O)(=O)c2ccccc2)c(O)n1-c1c(OC)cccc1OC | –
20 | 0.01 nM | 0.02 nM | 0.03 nM | 84% | 90% | 30% | 75 nm/s | 4 nm/s | COc1cccc(OC)c1-n1c(COC(C)C)nc(=O)c(S(=O)(=O)c2ccc(-c3ccc(F)nc3)cc2)c1O | –
21 | – | – | 0.027 nM | – | – | – | – | – | CCOCc1nc(O)c(-c2nnc(Cc3ccc(Cl)cn3)o2)c(O)c1-c1c(OC)cccc1OC [BMS-986224] | Cmax [9]: 5.3 µM; AUC(0-t) at 24 h [22]: 16 µM·h; half-life [10]: 2.3 h; AUC(0-inf) [20]: 15.5 µM·h
